The values that follow are results of earlier work, collected in patent publication US20020045168A1, “Computer based modeling system” (priority 2000, published 2002).

Test systems include AMP aptamer (1am0); Arg aptamer (1koc); citruline aptamer (1kod); FMN aptamer (1fmn).
Holding throughout (conditions): experimental, native ligand
For data set [1], the system named is tobramycin aptamer (2tob).

With `Nc1ncnc2c1ncn2[C@@H]1O[C@H](COP(=O)(O)O)[C@@H](O)[C@H]1O` [AMP, adenosine monophosphate], the “Exptl ΔGbind” value with AMP aptamer (1am0) is −28.5 kJmol^−1. On to `N=C(N)NCCC[C@H](N)C(=O)O` [Arginine, arginine], for which, in the data set with Arg aptamer (1koc), the “Exptl ΔGbind” value is given as −28.5 kJmol^−1. Consider `NC(=O)NCCC[C@H](N)C(=O)O` [Citruline, citruline], for which the “Exptl ΔGbind” value in the data set with citruline aptamer (1kod) is recorded as −28.5 kJmol^−1. As for `Cc1cc2nc3c(=O)[nH]c(=O)nc-3n(C[C@H](O)[C@H](O)[C@H](O)COP(=O)(O)O)c2cc1C` [Fmn, flavin mononucleotide], the “Exptl ΔGbind” value with FMN aptamer (1fmn) was −30.1 kJmol^−1. `NC[C@H]1O[C@H](O[C@H]2[C@H](O)[C@@H](O[C@H]3O[C@H](CO)[C@@H](O)[C@H](N)[C@H]3O)[C@H](N)C[C@@H]2N)[C@H](N)C[C@@H]1O` [Tobramycin, tobramycin]: the “Exptl ΔGbind” value in data set [1] was −45.2 kJmol^−1.
